According to ChEMBL document CHEMBL3991601, “The target landscape of clinical kinase drugs” (Science, 2017):
Activity calls are given as the source filed them. For most assays here, no stated cut-off is given here; in the data, actives have a measured Kd and inactives only a lower limit.

Legend:
[1] = target: Tyrosine-protein kinase Lyn (Homo sapiens, UniProt P07948)
[2] = target: T1, Breakpoint cluster region protein (Homo sapiens, UniProt P11274)
T1 sequence (P11274 whole entry): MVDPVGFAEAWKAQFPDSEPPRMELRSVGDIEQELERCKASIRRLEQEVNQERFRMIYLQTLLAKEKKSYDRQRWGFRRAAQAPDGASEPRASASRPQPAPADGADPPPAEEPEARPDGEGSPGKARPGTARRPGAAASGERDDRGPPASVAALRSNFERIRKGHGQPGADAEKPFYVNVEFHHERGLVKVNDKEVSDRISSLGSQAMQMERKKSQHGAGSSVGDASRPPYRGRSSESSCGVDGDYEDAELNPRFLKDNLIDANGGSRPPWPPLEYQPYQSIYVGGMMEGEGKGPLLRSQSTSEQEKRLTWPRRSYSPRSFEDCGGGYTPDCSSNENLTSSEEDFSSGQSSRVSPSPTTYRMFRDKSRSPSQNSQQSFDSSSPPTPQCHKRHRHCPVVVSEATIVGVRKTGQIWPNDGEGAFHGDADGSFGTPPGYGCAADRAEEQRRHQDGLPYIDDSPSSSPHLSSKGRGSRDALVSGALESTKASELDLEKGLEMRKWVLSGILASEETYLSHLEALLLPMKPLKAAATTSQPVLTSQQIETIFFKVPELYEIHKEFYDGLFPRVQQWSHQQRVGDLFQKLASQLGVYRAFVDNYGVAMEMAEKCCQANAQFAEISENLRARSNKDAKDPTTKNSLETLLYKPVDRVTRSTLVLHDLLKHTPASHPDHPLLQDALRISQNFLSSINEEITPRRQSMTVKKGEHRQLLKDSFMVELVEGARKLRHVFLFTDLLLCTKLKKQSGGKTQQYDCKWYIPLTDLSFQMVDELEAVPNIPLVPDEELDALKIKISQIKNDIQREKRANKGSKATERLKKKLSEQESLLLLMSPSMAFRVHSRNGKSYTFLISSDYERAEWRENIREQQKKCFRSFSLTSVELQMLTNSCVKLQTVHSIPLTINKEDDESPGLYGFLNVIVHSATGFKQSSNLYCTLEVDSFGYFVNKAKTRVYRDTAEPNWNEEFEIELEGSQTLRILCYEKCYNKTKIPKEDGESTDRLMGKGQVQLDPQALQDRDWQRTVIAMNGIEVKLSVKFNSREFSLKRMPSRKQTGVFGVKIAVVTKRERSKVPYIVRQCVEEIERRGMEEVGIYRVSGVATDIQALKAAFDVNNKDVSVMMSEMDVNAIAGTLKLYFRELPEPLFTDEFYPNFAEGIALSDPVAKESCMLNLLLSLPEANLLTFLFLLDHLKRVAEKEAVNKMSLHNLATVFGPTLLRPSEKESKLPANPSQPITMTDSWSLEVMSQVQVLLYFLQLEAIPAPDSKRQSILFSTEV

Pyridoxal kinase = target: T2, Pyridoxal kinase (Homo sapiens, UniProt O00764)
T2 sequence (O00764 whole entry): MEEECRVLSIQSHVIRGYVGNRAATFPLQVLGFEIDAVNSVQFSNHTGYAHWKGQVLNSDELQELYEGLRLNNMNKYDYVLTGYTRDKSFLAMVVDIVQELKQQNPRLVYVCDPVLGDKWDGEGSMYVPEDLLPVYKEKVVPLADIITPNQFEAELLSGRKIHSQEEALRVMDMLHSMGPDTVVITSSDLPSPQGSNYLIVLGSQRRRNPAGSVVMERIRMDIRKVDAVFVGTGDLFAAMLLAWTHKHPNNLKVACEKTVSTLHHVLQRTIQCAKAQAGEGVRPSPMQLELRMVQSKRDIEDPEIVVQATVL

[3] = target: Serine/threonine-protein kinase 16 (Homo sapiens, UniProt O75716)
Serine/threonine-protein kinase 16, sequence (O75716 whole entry): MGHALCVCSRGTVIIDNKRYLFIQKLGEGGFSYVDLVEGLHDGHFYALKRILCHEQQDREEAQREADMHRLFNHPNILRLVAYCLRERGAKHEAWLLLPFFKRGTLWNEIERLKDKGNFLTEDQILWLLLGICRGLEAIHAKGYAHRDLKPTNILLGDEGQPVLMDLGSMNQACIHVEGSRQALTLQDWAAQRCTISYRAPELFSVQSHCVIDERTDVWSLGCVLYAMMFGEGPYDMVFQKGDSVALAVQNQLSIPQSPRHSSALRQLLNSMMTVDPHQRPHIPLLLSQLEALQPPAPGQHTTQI

[4] = target: T3, Serine/threonine-protein kinase A-Raf (Homo sapiens, UniProt P10398)
T3 sequence (P10398 whole entry): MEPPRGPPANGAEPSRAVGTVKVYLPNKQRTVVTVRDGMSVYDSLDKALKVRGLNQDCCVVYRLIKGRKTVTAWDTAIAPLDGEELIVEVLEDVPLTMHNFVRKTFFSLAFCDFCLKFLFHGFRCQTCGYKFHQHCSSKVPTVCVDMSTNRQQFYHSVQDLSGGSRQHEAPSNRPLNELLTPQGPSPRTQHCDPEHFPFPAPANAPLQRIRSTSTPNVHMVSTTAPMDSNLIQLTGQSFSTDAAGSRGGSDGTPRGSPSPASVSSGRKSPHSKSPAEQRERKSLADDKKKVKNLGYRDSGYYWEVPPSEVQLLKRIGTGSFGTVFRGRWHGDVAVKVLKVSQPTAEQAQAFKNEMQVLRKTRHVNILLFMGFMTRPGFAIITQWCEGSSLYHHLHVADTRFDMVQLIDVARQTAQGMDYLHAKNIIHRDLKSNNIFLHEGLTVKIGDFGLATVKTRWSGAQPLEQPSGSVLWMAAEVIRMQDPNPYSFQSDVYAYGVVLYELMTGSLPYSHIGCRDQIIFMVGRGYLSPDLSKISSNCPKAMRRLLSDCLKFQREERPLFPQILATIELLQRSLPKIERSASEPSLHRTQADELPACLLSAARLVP

[5] = target: T4, MAP/microtubule affinity-regulating kinase 4 (Homo sapiens, UniProt Q96L34)
T4 sequence (Q96L34 whole entry): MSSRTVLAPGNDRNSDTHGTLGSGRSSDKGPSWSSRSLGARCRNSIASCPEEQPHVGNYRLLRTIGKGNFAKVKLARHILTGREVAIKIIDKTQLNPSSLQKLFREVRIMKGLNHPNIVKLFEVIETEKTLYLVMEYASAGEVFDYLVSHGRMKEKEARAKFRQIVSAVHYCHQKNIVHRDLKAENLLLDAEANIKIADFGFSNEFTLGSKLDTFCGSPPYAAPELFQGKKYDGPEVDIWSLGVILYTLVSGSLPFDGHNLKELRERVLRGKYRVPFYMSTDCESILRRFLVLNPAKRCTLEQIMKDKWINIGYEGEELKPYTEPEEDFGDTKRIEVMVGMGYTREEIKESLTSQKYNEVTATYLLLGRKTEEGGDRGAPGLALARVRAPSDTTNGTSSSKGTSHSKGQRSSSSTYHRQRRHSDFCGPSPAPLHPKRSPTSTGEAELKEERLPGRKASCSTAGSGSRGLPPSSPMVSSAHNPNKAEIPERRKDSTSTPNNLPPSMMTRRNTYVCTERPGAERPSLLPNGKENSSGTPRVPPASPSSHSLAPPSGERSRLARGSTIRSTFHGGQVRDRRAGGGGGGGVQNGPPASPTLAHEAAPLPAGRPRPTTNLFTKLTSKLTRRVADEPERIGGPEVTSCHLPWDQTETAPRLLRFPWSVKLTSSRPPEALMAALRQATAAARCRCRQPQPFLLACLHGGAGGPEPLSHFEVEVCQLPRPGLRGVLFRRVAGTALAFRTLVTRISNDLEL

Tyrosine-protein kinase Lyn, sequence (P07948 whole entry): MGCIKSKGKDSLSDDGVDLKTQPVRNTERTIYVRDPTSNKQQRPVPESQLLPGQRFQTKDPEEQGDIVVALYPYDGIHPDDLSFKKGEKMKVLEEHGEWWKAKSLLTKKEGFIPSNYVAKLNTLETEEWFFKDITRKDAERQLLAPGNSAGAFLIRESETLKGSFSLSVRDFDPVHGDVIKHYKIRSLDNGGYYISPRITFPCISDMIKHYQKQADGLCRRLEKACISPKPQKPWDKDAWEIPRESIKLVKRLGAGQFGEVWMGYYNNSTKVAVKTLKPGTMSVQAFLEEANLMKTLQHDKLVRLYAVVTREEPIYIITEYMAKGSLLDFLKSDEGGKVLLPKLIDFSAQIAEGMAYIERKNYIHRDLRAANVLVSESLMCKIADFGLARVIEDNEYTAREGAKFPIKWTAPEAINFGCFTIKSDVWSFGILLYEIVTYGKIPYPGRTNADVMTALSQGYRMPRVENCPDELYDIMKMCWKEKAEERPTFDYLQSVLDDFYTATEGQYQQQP

| SMILES | Kd [1] | Kd [2] | Kd (Pyridoxal kinase) | Kd [3] | Kd [4] | Kd [5] |
| --- | --- | --- | --- | --- | --- | --- |
| C[C@@H](Oc1cc(C(=O)Nc2ccc(C(=O)N3CCN(C)CC3)cc2)nnc1N)c1c(Cl)ccc(F)c1Cl | > 30 µM (inactive) | > 30 µM (inactive) | > 30 µM (inactive) | > 30 µM (inactive) | > 30 µM (inactive) | – |
| C[C@H]1CNCCCN1S(=O)(=O)c1cccc2cncc(F)c12 | > 30 µM (inactive) | > 30 µM (inactive) | > 30 µM (inactive) | > 30 µM (inactive) | > 30 µM (inactive) | – |
| CC(=O)c1cnc2ccc(-c3cc(Cl)c(O)c(Cl)c3)nc2c1N[C@H]1CC[C@H](CN(C)C)CC1 | 0.121 µM (active) | 0.014 µM (active) | > 30 µM (inactive) | – | > 30 µM (inactive) | – |
| CCNC(=O)C#Cc1ccc2c(c1)NC(=O)/C2=C(\Nc1ccc(CN(C)C)cc1)c1ccccc1 | 0.097 µM (active) | > 30 µM (inactive) | > 30 µM (inactive) | > 30 µM (inactive) | – | > 30 µM (inactive) |
| Cc1nc(NC(=O)N2CCC[C@H]2C(N)=O)sc1-c1ccnc(C(C)(C)C(F)(F)F)c1 [ALPELISIB] | > 30 µM (inactive) | > 30 µM (inactive) | > 30 µM (inactive) | > 30 µM (inactive) | > 30 µM (inactive) | – |
| CNC(=O)c1ccccc1Sc1ccc2c(/C=C/c3ccccn3)n[nH]c2c1 [AXITINIB] | – | 0.188 µM (active) | > 30 µM (inactive) | – | > 30 µM (inactive) | – |
| COc1cc([C@@H]2c3cc4c(cc3[C@H](O)[C@H]3COC(=O)[C@@H]23)OCO4)cc(OC)c1OC [AXL-1717] | > 30 µM (inactive) | > 30 µM (inactive) | > 30 µM (inactive) | > 30 µM (inactive) | > 30 µM (inactive) | – |
| CC(C)(C)c1nc(-c2cccc(NS(=O)(=O)c3c(F)cccc3F)c2F)c(-c2ccnc(N)n2)s1 [DABRAFENIB] | – | > 30 µM (inactive) | > 30 µM (inactive) | > 30 µM (inactive) | 0.047 µM (active) | > 30 µM (inactive) |
| Cn1cc(C2=C(c3cn(C4CCN(Cc5ccccn5)CC4)c4ccccc34)C(=O)NC2=O)c2ccccc21 [ENZASTAURIN] | – | > 30 µM (inactive) | > 30 µM (inactive) | – | > 30 µM (inactive) | – |
| Cc1cccc(-c2nn3c(c2-c2ccnc4ccc(C(N)=O)cc24)CCC3)n1 [GALUNISERTIB] | > 30 µM (inactive) | > 30 µM (inactive) | > 30 µM (inactive) | > 30 µM (inactive) | > 30 µM (inactive) | – |
| O=C(Nc1cc(C(F)(F)F)cc(C(F)(F)F)c1)c1cc(Cl)ccc1O [IMD-0354] | > 30 µM (inactive) | > 30 µM (inactive) | > 30 µM (inactive) | > 30 µM (inactive) | > 30 µM (inactive) | – |
| Cc1[nH]c(/C=C2\C(=O)Nc3ccccc32)c(C)c1CCC(=O)O [ORANTINIB] | – | > 30 µM (inactive) | > 30 µM (inactive) | – | > 30 µM (inactive) | – |
| CCCCCCCCCCCCCCCCCCOP(=O)([O-])OC1CC[N+](C)(C)CC1 [PERIFOSINE] | > 30 µM (inactive) | > 30 µM (inactive) | > 30 µM (inactive) | > 30 µM (inactive) | > 30 µM (inactive) | – |
| CNC(=O)c1cc(Oc2ccc(NC(=O)Nc3cc(C(C)(C)C)nn3-c3ccc4ncccc4c3)c(F)c2)ccn1 [REBASTINIB] | – | 0.381 µM (active) | > 30 µM (inactive) | – | 33.7 µM (active) | > 30 µM (inactive) |
| N#CC[C@H](C1CCCC1)n1cc(-c2ncnc3[nH]ccc23)cn1 [RUXOLITINIB] | – | > 30 µM (inactive) | > 30 µM (inactive) | – | > 30 µM (inactive) | – |
| Cn1ncc(Cl)c1-c1cc(C(=O)N[C@H](CN)Cc2ccc(F)c(F)c2)oc1Cl [UPROSERTIB] | > 30 µM (inactive) | > 30 µM (inactive) | > 30 µM (inactive) | > 30 µM (inactive) | > 30 µM (inactive) | – |
| CN1C/C=C/CCOc2cccc(c2)-c2ccnc(n2)Nc2cccc(c2)C1 [ZOTIRACICLIB] | > 30 µM (inactive) | > 30 µM (inactive) | > 30 µM (inactive) | > 30 µM (inactive) | > 30 µM (inactive) | – |

The next lines start with the values.

| Kd [1] | Kd [2] | Kd (Pyridoxal kinase) | Kd [3] | Kd [4] | Kd [5] | SMILES |
| --- | --- | --- | --- | --- | --- | --- |
| – | 0.156 µM (active) | > 30 µM (inactive) | 1.28 µM (active) | > 30 µM (inactive) | – | O=C(Nc1c[nH]nc1-c1nc2cc(CN3CCOCC3)ccc2[nH]1)NC1CC1 [AT-9283] |
| – | > 30 µM (inactive) | > 30 µM (inactive) | – | > 30 µM (inactive) | – | C[C@@H](Oc1cc(-n2cnc3ccc(CN4CCN(C)CC4)cc32)sc1C(N)=O)c1ccccc1C(F)(F)F [GSK-461364] |
| > 30 µM (inactive) | > 30 µM (inactive) | > 30 µM (inactive) | > 30 µM (inactive) | > 30 µM (inactive) | – | CN(C[C@@H]1COCCO1)S(=O)(=O)Nc1ccc2ccc3ncc(-c4cnn(C)c4)cc3c(=O)c2c1 [MK-2461] |
| – | 2.6 µM (active) | > 30 µM (inactive) | > 30 µM (inactive) | > 30 µM (inactive) | > 30 µM (inactive) | NC(=O)c1c(OCc2c(F)cc(Br)cc2F)nsc1NC(=O)NCCCCN1CCCC1 [OSI-632] |
| > 30 µM (inactive) | 10.8 µM (active) | > 30 µM (inactive) | – | > 30 µM (inactive) | 0.009 µM (active) | CC(=O)NCC(=O)N1[C@@H]2CC[C@H]1c1ccc(Nc3ncc(C(F)(F)F)c(NC4CCC4)n3)cc12 [PF-03814735] |
| – | > 30 µM (inactive) | > 30 µM (inactive) | – | > 30 µM (inactive) | – | O=C(NOCCO)c1cc(CN2OCCCC2=O)c(F)c(F)c1Nc1ccc(I)cc1F [RO-4987655] |
